Results published in article PMC12500691 (Frontiers in Cellular and Infection Microbiology, 2025).

Columns and labels:
[1] = target: SARS-CoV-2 ORF7a (Severe acute respiratory syndrome coronavirus 2, UniProt P0DTC7); experiment: biochemical; assay type: binding, SARS-CoV-2 (Wuhan variant)
[2] = system: SARS-CoV-2 proteins; assay type: binding, SARS-CoV-2 (Wuhan variant)

SARS-CoV-2 ORF7a, sequence (P0DTC7 16-96): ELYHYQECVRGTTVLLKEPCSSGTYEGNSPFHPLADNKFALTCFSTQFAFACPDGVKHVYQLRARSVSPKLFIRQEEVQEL

## CC[C@H](C)[C@H](NC(=O)[C@H](CCCCN)NC(=O)[C@H](CCC(=O)O)NC(=O)[C@H](CCCCN)NC(=O)[C@H](CO)NC(=O)[C@H](CCCCN)NC(=O)[C@H](CCCNC(=N)N)NC(=O)[C@H](Cc1ccccc1)NC(=O)[C@H](Cc1ccccc1)NC(=O)[C@H](CC(=O)O)NC(=O)CNC(=O)[C@H](CC(C)C)NC(=O)[C@@H](N)CC(C)C)C(=O)NCC(=O)N[C@@H](CCCCN)C(=O)N[C@@H](CCC(=O)O)C(=O)N[C@@H](Cc1ccccc1)C(=O)N[C@@H](CCCCN)C(=O)N[C@@H](CCCNC(=N)N)C(=O)N[C@H](C(=O)N[C@H](C(=O)N[C@@H](CCC(N)=O)C(=O)N[C@@H](CCCNC(=N)N)C(=O)N[C@H](C(=O)N[C@@H](CCCCN)C(=O)N[C@@H](CC(=O)O)C(=O)N[C@@H](Cc1ccccc1)C(=O)N[C@@H](CC(C)C)C(=O)N[C@@H](CCCNC(=N)N)C(=O)N[C@@H](CC(N)=O)C(=O)N[C@@H](CC(C)C)C(=O)N[C@H](C(=O)N1CCC[C@H]1C(=O)N[C@@H](CCCNC(=N)N)C(=O)N[C@H](C(=O)N[C@@H](CCC(=O)O)C(=O)N[C@@H](CO)C(=O)O)[C@@H](C)O)C(C)C)[C@@H](C)CC)C(C)C)[C@@H](C)CC [LL-37]
[1]
  Kd: 140 ± 80 nM

## synthetic control peptide: synthetic control peptide with an alpha-helical structure and a length of 29 amino acids, purchased from Biomatik (DKDGDLKTQIEKLWTEVNALKEIQALQTVCL)
[2]
  interaction with the SARS-CoV-2 proteins: did not show an interaction with the SARS-CoV-2 proteins
